Results reported in patent EP4177246A1, “FUSED OXAZEPINES AS INHIBITORS OF PEROXIREDOXINS” (Centro Atlántico del Medicamento, SA, priority 2021, dated 2023).

Assays:
K562 = test: MTT cell viability assay, K562 cells; type: cell-based; details: Homo sapiens, 48 h drug exposure
Protocol: K562 [American Type Culture Collection (ATCC) reference number CCL-243]. This a human cancer cell line derived from the bone marrow of a person with CML.
(§1) Cell viability was assayed by measuring the mitochondrial reduction of the tetrazolium salt 3-(4,5-methyltiazol-2yl)-2,5diphenyl-tetrazolium bromide] (MTT) (Applichen; A2231,0010) [Mosmann T. J Immunol Methods. 1983 16;65(1-2):55-63 (ref. 36); Chuan Y-C et al 2010. Oncogene. 29 (10), 1531-1542 (ref. 37)]. Cells were seeded in 96-well plates in medium (either RPMI, DMEM or McCoys depending on the recommendations from the ATCC) supplemented with 10% FBS (Lonza Cat. N°: 14-502F), 2mM L-Glut (Lonza Cat. N°: BE17-605E) and 100U/ml PEST (Lonza Cat. N°: DE17-605E) at a cell density of 1000-5000 cells/well (96 well plate). Cells were seeded at a density according to their exponential growth phase (normally 1000 to 5000/well). The cells were cultured at 37 °C in the dark in air containing 5% CO2. After 24h either vehicle (0.05% DMSO) or drug were added to culture medium at the indicated concentrations (10 to 0,01microM). After another 48 h, MTT (0.3 mg/ml) was added to cells, followed by incubation for 2-4h at 37 °C in the dark. The medium was then removed and the precipitated formazan was solubilized by the addition of DMSO (200 µL).
(§2) The optical density was measured at 595 nm with the iMark Microplate Reader (BioRad, USA). Data was expressed as percent growth above the level in controls and the results in figures were plotted as means ± SEM of each test point from 3 replicates.
(§3) Statistical analysis. The concentration of drug that provokes 50% reduction of cell viability (IC50) was determined by using non-linear regression analysis and data were fitted to a log concentration vs normalized response curve in GraphPad software v5 (San Diego, CA).

HEL 92.1.7 = test: MTT cell viability assay, HEL cells; type: cell-based; details: Homo sapiens, 48 h drug exposure
Protocol: HEL 92.1.7 [American Type Culture Collection (ATCC) reference number TIB-180]. This a human cancer cell line derived from the bone marrow of a person with erythroleukemia, which is a form of AML.
as §1, §2, §3

MDA-MB-231 = test: MTT cell viability assay, MDA-MB-231 cells; type: cell-based, human; details: Homo sapiens, 48 h drug exposure
Protocol: MDA-MB-231 [American Type Culture Collection (ATCC) reference number HTB-26]. This a human breast cancer cell line derived from a metastatic site from a person.
as §1, §2, §3

PANC-1 = test: MTT cell viability assay, PANC-1 cells; type: cell-based; details: Homo sapiens, 48 h drug exposure
Protocol: PANC-1 [American Type Culture Collection (ATCC) reference number CRL-1469]. This a human cancer cell line derived from the pancreas of a person.
as §1, §2, §3

MCF-7 = test: MTT cell viability assay, MCF-7 cells; type: cell-based; details: Homo sapiens, MCF7, 48 h drug exposure
Protocol: as §1, §2, §3

DU-145 = test: MTT cell viability assay, DU-145 cells; type: cell-based; details: Homo sapiens, 48 h drug exposure
Protocol: DU-145 [American Type Culture Collection (ATCC) reference number HTB-81]. This a human prostate cancer cell line derived from a metastatic site (brain) of a person.
as §1, §2, §3

Row | Compound | IC50 (K562) | IC50 (HEL 92.1.7) | IC50 (MDA-MB-231) | IC50 (PANC-1) | IC50 (MCF-7) | IC50 (DU-145)
1 | NS(=O)(=O)c1ccc(N2Cc3ccccc3OC3=C2C(=O)c2c(O)ccc(O)c2C3=O)cc1 [Compound 40, 4-(7,10-dihydroxy-6,11-dioxo-6,11-dihydrobenzo[f]naphtho[2,3-b][1,4]oxazepin-12(13H)-yl)benzenesulfonamide] | 0.59 µM | 0.21 µM | 1.96 µM | 0.63 µM | 2.52 µM | 6.13 µM
2 | CN(C)c1ccc(N2Cc3ccccc3OC3=C2C(=O)c2c(O)ccc(O)c2C3=O)cn1 [Compound 62, 12-(6-(dimethylamino)pyridin-3-yl)-7,10-dihydroxy-12,13-dihydrobenzo[f]naphtho[2,3-b][1,4]oxazepine-6,11-dione] | 0.1 µM | 0.07 µM | 0.27 µM | 1.55 µM | 3 µM | 1.32 µM
3 | O=C1C2=C(C(=O)c3c(O)ccc(O)c31)N(c1ccc(N3CCOCC3)nc1)Cc1ccccc1O2 [Compound 59] | 0.05 µM | 0.06 µM | 0.21 µM | 0.28 µM | 0.72 µM | 0.54 µM
4 | N#Cc1ccc(N2Cc3ccccc3OC3=C2C(=O)c2c(O)ccc(O)c2C3=O)cc1 [Compound 8, 4-(7,10-dihydroxy-6,11-dioxobenzo[f]naphtho[2,3-b][1,4]oxazepin-12(6H,11H,13H)-yl)benzonitrile] | 0.23 µM | 0.1 µM | 0.36 µM | 0.32 µM | 2.59 µM | 6.04 µM
5 | NC(=O)c1ccc(N2Cc3cc(Cl)ccc3OC3=C2C(=O)c2c(O)ccc(O)c2C3=O)cc1 [Compound 41] | 0.22 µM |  | 0.98 µM | 0.39 µM | 1.53 µM | 3.74 µM
6 | N#Cc1ccc(N2Cc3ccccc3OC3=C2C(=O)c2ccccc2C3=O)cc1 [Compound 2, 4-(6,11-dioxo-6,11-dihydrobenzo[f]naphtho[2,3-b][1,4]oxazepin-12(13H)-yl)benzonitrile] | 0.57 µM | 0.35 µM | 4.02 µM | 5.6 µM | 4.22 µM | > 10 µM
7 | NC(=O)c1cccc(N2Cc3ccccc3OC3=C2C(=O)c2c(O)ccc(O)c2C3=O)c1 [Compound 54, 3-(7,10-dihydroxy-6,11-dioxo-6,11-dihydrobenzo[f]naphtho[2,3-b][1,4]oxazepin-12(13H)-yl)benzamide] | 0.07 µM | 0.09 µM | 0.19 µM | 0.38 µM | 1.28 µM | 3.41 µM
8 | COc1ccc2c(c1)OC1=C(C(=O)c3c(O)ccc(O)c3C1=O)N(C(=O)c1ccc(C#N)cc1)C2 [Compound 13] | 0.32 µM |  | 0.78 µM | 0.46 µM | 2.75 µM | 3.72 µM
9 | CN1CCN(c2ccc(N3Cc4ccccc4OC4=C3C(=O)c3c(O)ccc(O)c3C4=O)cn2)CC1 [Compound 81, 7,10-dihydroxy-12-(6-(4-methylpiperazin-1-yl)pyridin-3-yl)-12,13-dihydrobenzo[f]naphtho[2,3-b][1,4]oxazepine-6,11-dione] | 0.02 µM | 0.05 µM | 0.32 µM | 0.26 µM | 0.91 µM | 0.82 µM
10 | N#Cc1cccc(N2Cc3ccccc3OC3=C2C(=O)c2c(O)ccc(O)c2C3=O)c1 [Compound 9, 3-(7,10-dihydroxy-6,11-dioxo-6,11-dihydrobenzo[f]naphtho[2,3-b][1,4]oxazepin-12(13H)-yl)benzonitrile] | 0.08 µM |  | 0.38 µM | 0.46 µM | 1.15 µM | 2.53 µM
